# According to patent US10689384B2, “Imidazo[1,2-a]quinoxalines and derivatives thereof for the treatment of cancer” (Universite de Montpellier, priority 2014, dated 2020):
# Key:
# [1] = tested on: human cancer cell lines; experiment: In vitro cytotoxicity study, Summarized results 2 (cell line not given); assay type: cell-based; conditions: Homo sapiens, Table 4, Summarized results 2; cell line not stated
# Method: (§1) The goal of this protocol is to study the effects of the compounds on the proliferation of various human cancer cell lines in order to evaluate the EC50 and their activity in cellulo.
# (§2) The cells are seeded the day before treatment in 96 well plates. Each compound concentration is tested in triplicate. A 96 well plate can contain 3 compounds.
# (§3) Stock solutions of the tested compounds are prepared at 10 mM in 100% DMSO and stored at […].
# (§4) The analysis is carried out by using the GraphPad PRISM 5.0 software.
# (§5) Day 1: the cells are seeded one day before treatment with the compounds in 96 well plates. Cell suspensions for each cancer cell line are prepared with a specific density in a specific culture medium (see preceding table). Next, 100 µL of cell suspension is distributed per well (1×96 well plate per cell line).
# (§6) Day 2: 24 hours later, the […] compounds or controls (DMSO) are added to the cells ([…] of a compound solution in its specific medium with a final DMSO concentration of 0.15%).
# (§7) Each compound concentration is tested in triplicate (6 concentrations between 10^−9 M and 10^−5 M per compound). The cells are incubated at 37° C. for 72 hours with no new treatment.
# (§8) Day 5: 15 minutes before incubation of the cells with MTT (3-[4,5-dimethylthiazol-2-yl]-2,5-diphenyltetrazolium bromide), 10% SDS is added to the control wells to obtain a final concentration of 1%. The positive control of inhibition of proliferation is 1% SDS.
# (§9) Once the medium is removed, 100 µL of a solution of MTT in fresh medium is added to each well (10 μL of 10×MTT solution at 5 mg/mL in PBS +[…] of fresh medium) and the plates are incubated for 4 hours at 37° C.
# (§10) The MTT reaction is quenched and the medium is homogenized by addition of […] of 10% SDS/0.01 M HCl solution placed in each well. The medium is incubated for 2 hours at 37° C. before measuring its absorbance. Absorbance is measured at 570 nm.
# [2] = tested on: CFPAC-1; experiment: In vitro cytotoxicity study, inhibition of cell growth (MTT); assay type: cell-based; conditions: Homo sapiens, CFPAC-1, pancreas, 72 hours
# Method: as §1, §2
# (§11) Cell suspensions for each cancer cell line are prepared in culture medium with a specific density of the specific cell (see the following table). Then, 100 µL of cell suspension is spread per well (plate per one cell line).
# as §3, §4, §5, §6, §7, §8, §9, §10
# [3] = tested on: COLO-205; experiment: as above; assay type: cell-based; conditions: Homo sapiens, COLO-205, colon, 72 hours
# Method: as §1, §2, §11, §3, §4, §5, §6, §7, §8, §9, §10
# [4] = tested on: Capan-1; experiment: as above; assay type: cell-based; conditions: Homo sapiens, Capan-1, pancreas, 72 hours
# Method: as §1, §2, §11, §3, §4, §5, §6, §7, §8, §9, §10
# [5] = tested on: T-47D; experiment: as above; assay type: cell-based; conditions: Homo sapiens, T47D, breast, 72 hours
# Method: as §1, §2, §11, §3, §4, §5, §6, §7, §8, §9, §10
# [6] = tested on: PC-3; experiment: as above; assay type: cell-based; conditions: Homo sapiens, PC-3, prostate, 72 hours
# Method: as §1, §2, §11, §3, §4, §5, §6, §7, §8, §9, §10
# [7] = tested on: A2058; experiment: as above; assay type: cell-based; conditions: Homo sapiens, A2058, melanoma, 72 hours
# Method: as §1, §2, §11, §3, §4, §5, §6, §7, §8, §9, §10
# [8] = tested on: AsPC-1; experiment: as above; assay type: cell-based; conditions: Homo sapiens, ASPC1, AsPC-1, pancreas, 72 hours
# Method: as §1, §2, §11, §3, §4, §5, §6, §7, §8, §9, §10
# [9] = tested on: MEWO; experiment: as above; assay type: cell-based; conditions: Homo sapiens, melanoma, 72 hours
# Method: as §1, §2, §11, §3, §4, §5, §6, §7, §8, §9, §10
# [10] = tested on: IPC298; experiment: as above; assay type: cell-based; conditions: Homo sapiens, IPC-298, IPC298, melanoma, 72 hours
# Method: as §1, §2, §11, §3, §4, §5, §6, §7, §8, §9, §10
# [11] = tested on: BxPC3; experiment: as above; assay type: cell-based; conditions: Homo sapiens, BXPC-3, BxPC3, pancreas, 72 hours
# Method: as §1, §2, §11, §3, §4, §5, §6, §7, §8, §9, §10
# [12] = tested on: PF382; experiment: as above; assay type: cell-based; conditions: Homo sapiens, PF-382, PF382, lymphoid, 72 hours
# Method: as §1, §2, §11, §3, §4, §5, §6, §7, §8, §9, §10
# [13] = tested on: HepG2; experiment: as above; assay type: cell-based; conditions: Homo sapiens, HepG2, liver, 72 hours
# Method: as §1, §2, §11, §3, §4, §5, §6, §7, §8, §9, §10
# [14] = tested on: Calu-1; experiment: as above; assay type: cell-based; conditions: Homo sapiens, Calu-1, lung, 72 hours
# Method: as §1, §2, §11, §3, §4, §5, §6, §7, §8, §9, §10
# [15] = tested on: LoVo; experiment: as above; assay type: cell-based; conditions: Homo sapiens, colon, 72 hours
# Method: as §1, §2, §11, §3, §4, §5, §6, §7, §8, §9, §10
# [16] = tested on: A375; experiment: as above; assay type: cell-based; conditions: Homo sapiens, A-375, A375, melanoma, 72 hours
# Method: as §1, §2, §11, §3, §4, §5, §6, §7, §8, §9, §10
# [17] = biological target: T1, purified tubulin (Sus scrofa, UniProt P02550+P02554); experiment: Effect on the polymerization of purified tubulin (turbidimetry at 350 nm); assay type: biochemical, pig; conditions: 2.4 μM tubulin, 37° C.
# T1 construct: Tubulin is prepared from pig brain; from tissue; host or cells: pig brain
# T1 sequence (P02550 whole entry): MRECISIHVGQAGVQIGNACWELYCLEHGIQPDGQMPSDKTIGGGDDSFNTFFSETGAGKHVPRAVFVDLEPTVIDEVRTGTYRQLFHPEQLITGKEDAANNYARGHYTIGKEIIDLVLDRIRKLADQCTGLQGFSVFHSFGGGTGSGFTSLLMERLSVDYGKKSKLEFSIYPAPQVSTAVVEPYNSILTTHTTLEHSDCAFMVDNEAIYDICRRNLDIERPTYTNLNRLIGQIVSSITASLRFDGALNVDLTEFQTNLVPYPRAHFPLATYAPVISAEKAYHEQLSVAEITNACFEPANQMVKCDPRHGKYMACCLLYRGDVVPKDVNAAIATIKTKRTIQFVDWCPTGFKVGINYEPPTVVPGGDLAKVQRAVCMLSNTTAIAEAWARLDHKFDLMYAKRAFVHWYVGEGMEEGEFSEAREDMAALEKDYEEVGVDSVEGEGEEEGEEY
# T1 sequence (P02554 whole entry): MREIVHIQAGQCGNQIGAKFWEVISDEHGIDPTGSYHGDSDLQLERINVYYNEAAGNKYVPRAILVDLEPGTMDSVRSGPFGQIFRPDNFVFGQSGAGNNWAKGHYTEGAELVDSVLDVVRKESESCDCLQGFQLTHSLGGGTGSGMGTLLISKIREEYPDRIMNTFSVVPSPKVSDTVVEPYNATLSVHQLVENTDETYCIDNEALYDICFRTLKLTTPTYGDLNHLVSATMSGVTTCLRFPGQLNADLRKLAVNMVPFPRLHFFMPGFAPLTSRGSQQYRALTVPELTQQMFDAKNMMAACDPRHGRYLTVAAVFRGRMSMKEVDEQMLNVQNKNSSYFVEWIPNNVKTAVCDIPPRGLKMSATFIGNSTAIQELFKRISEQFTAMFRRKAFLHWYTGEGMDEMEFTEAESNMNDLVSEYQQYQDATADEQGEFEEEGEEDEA
# Method: FIG. 1. Study of the innovative effect of compounds of the selection patent on the polymerization of purified tubulin. This is a comparative study of the effect on the polymerization of purified tubulin by compounds of the selection patent compared to that of the compounds of the patent FR 2,921,927. Polymerized tubulin absorbs at 350 nm.
# Tubulin is prepared from pig brain according to the purification process described by Williams and Lee (1982). Tubulin polymerization is monitored by turbidimetry at 350 nm with an MC2 spectrophotometer (Safas, Monaco) equipped with a heat-jacketed cuvette holder. The reaction mixture was prepared at 0° C., and contains PEM buffer, 25% glycerol (v/v), 1 mM GTP, and 2.4 μM tubulin. The GTP and the tubulin are added at the last minute. […] The same volume of DMSO alone was used as a negative control. The final volume of the sample is […]. The reaction is initiated by placing the cuvette in the cell compartment of the spectrophotometer thermostated at 37° C. Ice is added 45 minutes later to launch depolymerization in order to confirm the specificity of the signal.
smiles,measurement,setting,value
COc1ccc(-c2cnc3c(NC(C)C(=O)OC(C)(C)C)nc4ccccc4n23)cc1OC (stereo not shown) [EAPB 02218],IC50,[1],> 10000 nM
"COc1ccc(-c2cnc3c(NCCCNC(=O)OC(C)(C)C)nc4ccccc4n23)cc1OC [EAPB 02214, tert-Butyl (3-((1-(3,4-dimethoxyphenyl)imidazo[1,2-a]quinoxalin-4-yl)amino)propyl)carbamate]",IC50,[1],> 10000 nM
"NCCCCCCNc1nc2ccccc2n2c(-c3ccc(O)c(O)c3)cnc12 [EAPB 02307, 4-(4-((6-Aminohexyl)amino)imidazo[1,2-a]quinoxalin-1-yl)benzene-1,2-diol]",IC50,[1],5690 nM
"CNc1nc2ccc(C(F)(F)F)cc2n2c(-c3ccc(O)c(O)c3)cnc12 [EAPB 02303-8a, 4-(4-(Methylamino)-8-(trifluoromethyl)imidazo[1,2-a]quinoxalin-1-yl)benzene-1,2-diol]",IC50,[1],> 10000 nM
O=C(CNc1nc2ccccc2n2c(-c3ccc(O)c(O)c3)cnc12)NC(CO)(CO)CO [EAPB 02310],IC50,[1],> 10000 nM
"COc1ccc(-c2cnc3c(NCCCCCCNC(=O)OC(C)(C)C)nc4ccccc4n23)cc1OC [EAPB 02212, tert-Butyl (6-((1-(3,4-dimethoxyphenyl)imidazo[1,2-a]quinoxalin-4-yl)amino)hexyl)carbamate]",IC50,[1],> 10000 nM
"CNc1nc2ccccc2n2c(-c3cccc(OC)c3)cnc12 [EAPB0503, 1-(3-methoxyphenyl)-N-methylimidazo[1,2-a]quinoxalin-4-amine, reference compound]",EC50,[2],598 nM
same,EC50,[3],201 nM
same,EC50,[4],561 nM
same,EC50,[5],198 nM
same,EC50,[6],537 nM
same,EC50,[7],185 nM
same,EC50,[8],2800 nM
same,EC50,[9],125 nM
same,EC50,[10],469 nM
same,EC50,[11],159 nM
same,EC50,[12],205 nM
same,EC50,[13],1360 nM
same,EC50,[14],196 nM
same,EC50,[15],89 nM
same,EC50,[16],383 nM
same,Effect on polymerization of purified tubulin (absorbance level at 350 nm),[17],decreases the absorbance level
"CNc1nc2ccccc2n2c(-c3ccc(OC)c(OC)c3)cnc12 [EAPB 02203, 1-(3,4-Dimethoxyphenyl)-N-methylimidazo[1,2-a]quinoxalin-4-amine]",IC50,[1],193 nM
"CNc1nc2ccccc2n2ccnc12 [PED 26, N-Methylimidazo[1,2-a]quinoxalin-4-amine]",IC50,[1],> 10000 nM
"NCCNc1nc2ccccc2n2c(-c3ccc(O)c(O)c3)cnc12 [EAPB 02306, 4-(4-((2-Aminoethyl)amino)imidazo[1,2-a]quinoxalin-1-yl)benzene-1,2-diol]",IC50,[1],1280 nM
CNc1nc2cc(C#N)ccc2n2c(-c3ccc(O)c(O)c3)cnc12 [EAPB 02303-7c],IC50,[1],6390 nM
"Oc1ccc(-c2cnc3c(N4CCNCC4)nc4ccccc4n23)cc1O [EAPB0 2308, 4-(4-(Piperazin-1-yl)imidazo[1,2-a]quinoxalin-1-yl)benzene-1,2-diol]",IC50,[1],> 10000 nM
"COc1ccc(-c2cnc3c(N4CCN(C(=O)OC(C)(C)C)CC4)nc4ccccc4n23)cc1OC [EAPB 02213, tert-Butyl 4-(1-(3,4-dimethoxyphenyl)imidazo[1,2-a]quinoxalin-4-yl)piperazine-1-carboxylate]",IC50,[1],> 10000 nM
